Source: PubChem BioAssay (NCI)
“And” between values parts separate entries of the source, which are not always exact repeats. Equal values may be shown once.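 Step 1: Grow cells in 96-well plates. Step 2: Expose to compound for 48 hours at 5 concentrations. Step 3: Interpolate endpoints linearly; if unreached, use highest concentration. GI50 = concentration required for 50% inhibition of growth. TGI: concentration producing complete growth inhibition.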

Experiments:
Assay in all cases: growth of human tumour cells (NCI), 48 h
[1] = tested on: KM12 colon
[2] = tested on: SR leukemia
[3] = tested on: RXF 393 renal
[4] = tested on: UACC-62 melanoma
[5] = tested on: OVCAR-3 ovarian
[6] = tested on: RPMI-8226 leukemia
[7] = tested on: TK-10 renal
[8] = tested on: HL-60(TB) leukemia
[9] = tested on: SNB-75 CNS
[10] = tested on: SK-MEL-28 melanoma

Row | SMILES | GI50 [1] [µM] | TGI [1] [µM] | GI50 [2] [µM] | TGI [2] [µM] | GI50 [3] [µM] | TGI [3] | GI50 [4] [µM] | TGI [4] [µM] | GI50 [5] [µM] | TGI [5] [µM] | GI50 [6] [µM] | TGI [6] | GI50 [7] [µM] | TGI [7] [µM] | GI50 [8] [µM] | TGI [8] [µM] | GI50 [9] [µM] | TGI [9] [µM] | GI50 [10] [µM] | TGI [10] [µM]
1 | O=C(Nc1cccc(-n2ccc3c(NC(=O)c4ccccc4)nccc32)c1)Nc1cc(C(F)(F)F)cc(C(F)(F)F)c1 | 1.53 | 4.7 | 1.72 | 6.48 | 1.16 | 3.17 µM | 2 | 13 | 1.28 | 3.18 | 1.13 | 2.85 µM | 1.83 | 32.5 | 1.72 | 5.01 | 1.09 | 3.89 | 2.14 | > 50
2 | CC(NC(=O)C(C)NC(=O)C(N)CCP(C)(=O)O)C(=O)O (centres undefined) |  | > 100 |  |  |  | > 100 µM |  | > 100 |  | > 100 |  | > 100 µM |  |  |  | > 100 |  | > 100 |  | > 100
3 | Nc1nc(SCc2ccc([N+](=O)[O-])cc2)nc2c1ncn2C1OC(COP(=O)(O)O)C(O)C1O (centres undefined) |  | > 100 |  | > 100 |  | > 100 µM |  | > 100 |  | > 100 |  |  |  | > 100 |  | > 100 |  | > 100 |  | > 100
4 | N[C@H](C(=O)O)[C@H]1ON=C(Cl)[C@@H]1O | 2.23 | > 550 |  |  | 7.92 | > 93.8 µM and 232 µM | 17.5 | > 550 | 0.449 | > 550 | 10.9 | > 97.1 µM and 233 µM |  |  | 13.1 | 222 |  | > 364 | 28.4 | > 550
5 | CCOP(=O)(OCC)/C(C#N)=C/c1cn(C)cn1 |  | > 100 |  | > 100 |  | > 100 µM |  | > 100 |  | > 100 |  |  |  | > 100 |  |  |  | > 100 |  | > 100
6 | O=S(=O)(CCBr)CCBr |  | 30 |  |  |  | 5.88 µM |  | 11 |  | 12.3 |  | 12.1 µM |  |  |  | 5.93 |  | 25.5 |  | 8.61
7 | CC1=Nc2nc(Cl)cn2C(=O)C1(Cl)Cl |  | > 10 |  | > 10 |  | > 10 µM |  | > 10 |  | > 10 |  | > 10 µM |  | > 10 |  | > 10 |  | > 10 |  | > 10
8 | Cc1ccc(N=N/C(=N\NC(=O)c2ccc(C)cc2)c2ccc(N(CCC#N)CCC#N)cc2C)cc1 |  | 30.3 |  | > 100 |  | > 100 µM |  | 56.7 |  | > 100 |  | > 100 µM |  | > 100 |  | > 100 |  | > 100 |  | 52.5
9 | C[Si](C)(OCCS(=O)(=O)O)C1(Cc2cccc3ccccc23)S(=O)(=O)OCCOS1(=O)=O |  | 29.5 |  |  |  |  |  | 43 |  | 25.9 |  | 57 µM |  | 50.9 |  | 51.8 |  | 55.1 |  | 37
10 | Cc1ccc(N2Cc3c(ccc4ccccc34)OP2(=O)Oc2ccc(Cl)c(C)c2)cc1 (centres undefined) |  | > 100 |  |  |  | > 100 µM |  | > 100 |  | > 31.6 |  | > 22.3 µM |  |  |  | > 100 |  | > 100 |  | > 100
11 | COc1ccc(-n2cnnc2-c2nsc3ccccc23)cc1 |  | > 100 |  | > 100 |  | 65.8 µM |  | > 100 |  | > 100 |  | > 100 µM |  | > 100 |  | > 100 |  | 59.2 |  | > 100
